Reference: the NIST ThermoML archive (doi:10.1016/j.jct.2018.08.033)
± gives the expanded uncertainty stated by the source.

Assays:
[1] = xn = mol fraction of the nth substance listed; details: 100 kPa, Liquid, Vibrating tube method, x2 = 0.9938
[2] = Liquid; for mass density: 100 kPa, Vibrating tube method; for speed of sound: 101.33 kPa, Single path-length method

## CCCCOCCCN [3-butoxy-1-propanamine] + O
[1]; 283.15 K
  mass density: 996.79 ± 1 kg/m3
[1]; 288.15 K
  mass density: 995.99 ± 1 kg/m3
[1]; 293.15 K
  mass density: 994.84 ± 1 kg/m3
[1]; 298.15 K
  mass density: 993.43 ± 0.99 kg/m3
[1]; 303.15 K
  mass density: 991.89 ± 0.99 kg/m3

## OCCCO [propan-1,3-diol]
[2]; 283.15 K
  mass density: 1059.63 ± 1.4 kg/m3
  speed of sound: 1658.7 ± 2.4 m/s
[2]; 288.15 K
  mass density: 1056.47 ± 1.4 kg/m3
  speed of sound: 1647.2 ± 2.4 m/s
[2]; 293.15 K
  mass density: 1053.3 ± 1.4 kg/m3
  speed of sound: 1635.9 ± 2.4 m/s
[2]; 298.15 K
  mass density: 1050.14 ± 1.4 kg/m3
  speed of sound: 1624.6 ± 2.4 m/s
[2]; 303.15 K
  mass density: 1046.99 ± 1.4 kg/m3
  speed of sound: 1613.3 ± 2.4 m/s
